{
  "source": "paper PMC6316600",
  "about": "“Analgesic Activity of Acid-Sensing Ion Channel 3 (ASIС3) Inhibitors: Sea Anemones Peptides Ugr9-1 and APETx2 versus Low Molecular Weight Compounds” (Marine Drugs, 2018)",
  "key": {"[1]": {"test_system": "acetic acid writhing", "settings": "cited from earlier work", "description": "ASIC3 channels play an important role in the perception and maintenance of pain signals in peripheral neurons. Several ligands with inhibitory properties were found for this receptor, each of which was able to induce analgesia in animal tests. The most well-known inhibitor APETx2 in various studies has been tested on models of acid-induced muscle pain model, CFA-induced inflammatory pain model (at doses of 0.07, 0.22 and 2.2 µM). Ugr9-1 was studied in models of CFA-induced thermal hyperalgesia and acetic acid writhing test (at doses of 0.5, 0.1, and 0.01 mg/kg). […] The nonspecific actions on other cellular targets and the changes of ASIC3 involvement in the inflammatory process induced by the high antagonists’ concentration for 2 h are suspected. We conclude that the inhibition of both components of ASIC3 currents could be beneficial but could be reversed by hormesis in high doses and during a long exposure to ..."}, "[2]": {"test_system": "mice", "assay": "CFA-induced paw oedema", "assay_type": "in vivo, CD-1 mice", "settings": "n = 7–8; for Reduction of inflammation (paw oedema): within 24 h; for Anti-inflammatory effect within 4 h: intramuscular, within 4 h after administration", "description": "To reveal the anti-inflammatory effects of ASIC3 antagonists, paw oedema changes were also evaluated (Figure 5). […] APETx2 in a dose of 1 mg/kg reduced paw oedema by 16%, 24%, and 44% compared to the control group at 2, 4, and 24 h after administration, respectively. APETx2 at 0.2 mg/kg reduced inflammation by approximately 20% only 24 h after administration.\nFigure 5 Anti-inflammatory effect of ligands. […] Results are presented as mean ± SEM (n = 7–8). * p < 0.05, ** p < 0.01, *** p < 0.001 versus saline group (ANOVA followed by a Tukey’s test).\n(§1) Adult male CD-1 mice (Animal Breeding Facility Branch of Shemyakin-Ovchinnikov Institute of Bioorganic Chemistry, Russian Academy of Sciences, Pushchino, Russia) weighing 20–25 g were used. Animals that originally passed clinical examination that confirmed no deviations in health were divided into groups (at least eight male mice per group) using the principle of randomization. The average body weight of animals in each group was not statistically different between groups. Animals were housed at room temperature (23 ± 2 °C) and subjected to a 12-h light-dark cycle with food and water available ad libitum. All experiments were performed after receiving approval from the Animal Care and Use Committee of the Branch of the Institute of Bioorganic Chemistry, Russian Academy of Sciences (IBCh RAS) (Pushchino, Russia Federation). The samples were administered intramuscularly 2 h before testing (4 h in the open field test). The initial dose of 1 mg/kg was investigated for all samples, which was further reduced 5, 50, and 500 times for peptides.\nCFA suspended in an oil/saline (1:1) emulsion was injected into the dorsal surfaces of the left hind paws of mice (20 µL/paw) 24 h before the samples’ intramuscular injection. The control mice received 20 µL of saline (intraplantar). The paw withdrawal latencies to thermal stimulation (53 °C) were measured 2 h after the sample injection. The paw diameter was evaluated before the CFA injection, before the samples and saline administration, and 2, 4, and 24 h after the administration using a digital calliper.\nThe data significance in animal tests was determined by an analysis of variance followed by a Tukey’s test. Data are presented as the mean ± SEM."}, "[3]": {"test_system": "mice", "assay": "Open field test", "assay_type": "in vivo, CD-1 mice", "settings": "1 mg/kg intramuscular, 4 h before; n = 6–7", "description": "An open field test was carried out on mice to estimate the possible sedative effects of compounds administration. No statistically significant changes were detected between ASIC3 antagonist-treated groups and the control animals group in 5-min observations of 12 parameters.\nFigure 2 Open field experiments on mice. Administration of compounds at a 1 mg/kg dose intramuscularly was done 4 h before of the measurements. (A) Travelling distance and (B) locomotion activity presented as mean ± SEM for 5-min recording period (n = 6–7).\nas §1\nIn the locomotion measurements, exploration and anxiety were evaluated in the motor activity test on a computerized TSE Multi Conditioning System (TSE Systems GmbH, Bad Homburg, Germany). Four hours after the administration of the sample, the measurement was made, which lasted for 3 min. […]\nThe data significance in animal tests was determined by an analysis of variance followed by a Tukey’s test. […]"}, "[4]": {"test_system": "animal models of pain", "settings": "cited from earlier work"}, "[5]": {"test_system": "CFA-induced thermal hyperalgesia", "settings": "cited from earlier work", "description": "An inhibition of ASIC3 was reported to be an attractive approach to producing analgesia. […] Other nonspecific substances can also influence ASIC3 activity. […] Several ligands with inhibitory properties were found for this receptor, each of which was able to induce analgesia in animal tests. The most well-known inhibitor APETx2 in various studies has been tested on models of acid-induced muscle pain model, CFA-induced inflammatory pain model (at doses of 0.07, 0.22 and 2.2 µM). Ugr9-1 was studied in models of CFA-induced thermal hyperalgesia and acetic acid writhing test (at doses of 0.5, 0.1, and 0.01 mg/kg). […] The nonspecific actions on other cellular targets and the changes of ASIC3 involvement in the inflammatory process induced by the high antagonists’ concentration for 2 h are suspected. We conclude that the inhibition of both components of ASIC3 currents could be beneficial but could be reversed by hormesis in high doses and during a long exposure to ..."}, "[6]": {"settings": "cited from earlier work", "from_the_text": "Several explanations could be proposed. First, the result of partial ASIC1a inhibition is unpredictable. Second, better bioavailability of sevanol compared with Ugr9-1 can enhance the effect. Peptides from sea anemones have rather shor ..."}, "[7]": {"test_system": "ASIC1a", "settings": "cited from earlier work", "from_the_text": "An inhibition of ASIC3 was reported to be an attractive approach to producing analgesia. […] Other nonspecific substances can also influence ASIC3 activity."}, "[8]": {"settings": "intravenous, 30 min before testing"}},
  "note": "Bridge positions count the residues as written; N and C are the ends. Peptide text beside a SMILES is read from it.",
  "data": [
    {"smiles": "CC[C@H](C)[C@H](N)C(=O)N[C@@H](CO)C(=O)N[C@H](C(=O)N[C@@H](CC(=O)O)C(=O)N1CCC[C@H]1C(=O)N1CCC[C@H]1C(=O)N[C@H]1CSSC[C@@H](C(=O)NCC(=O)N[C@@H](C)C(=O)N[C@H](C(=O)O)C(C)C)NC(=O)CNC(=O)[C@H](Cc2ccc(O)cc2)NC(=O)[C@H](C)NC(=O)[C@H](CC(=O)O)NC(=O)[C@H](Cc2ccc(O)cc2)NC(=O)[C@H](C(C)C)NC(=O)[C@@H]2CSSC[C@H](NC(=O)[C@H](Cc3ccccc3)NC(=O)[C@H](CCCNC(=N)N)NC1=O)C(=O)N[C@@H](Cc1ccc(O)cc1)C(=O)N[C@@H](Cc1c[nH]cn1)C(=O)N[C@@H](CCCNC(=N)N)C(=O)N[C@@H](CC(=O)O)C(=O)NCC(=O)N[C@@H](CO)C(=O)NCC(=O)N[C@@H](CC(N)=O)C(=O)N2)[C@@H](C)CC", "note": "[Ugr9-1] (H-ISIDPPCRFCYHRDGSGNCVYDAYGCGAV-OH; disulfide 7-26, 10-19; N-terminus and C-terminus assumed)", "values": [
      {"measurement": "Efficacy in acetic acid writhing test", "setting": "[1]; [8]", "result": "~ 50%"},
      {"measurement": "Reduction of inflammation (paw oedema)", "setting": "[2]; 0.02 mg/kg intramuscular", "result": 31, "unit": "%"},
      {"measurement": "Anti-inflammatory effect within 4 h", "setting": "[2]", "result": "did not produce significant anti-inflammatory effects within 4 h"},
      {"measurement": "Travelled distance, time spent freezing, distance in the central area versus control", "setting": "[3]", "result": "each of these differences was nonsignificant"},
      {"measurement": "Analgesic effect", "setting": "[4]; 0.1–0.5 mg/kg", "result": "significant analgesic effect"},
      {"measurement": "Dose dependence, CFA thermal hyperalgesia test", "setting": "[5]; [8]", "result": "clearly dose-dependent"}
    ]},
    {"smiles": "O=C(O)Cc1ccccc1Nc1c(Cl)cccc1Cl", "note": "[diclofenac, reference compound]", "values": [
      {"measurement": "Effect on acetic acid-induced writhing", "setting": "[1]; 20 mg/kg i.p.", "result": "inhibited acetic acid-induced writhing"},
      {"measurement": "Anti-inflammatory effect within 4 h", "setting": "[2]", "result": "did not produce significant anti-inflammatory effects within 4 h"},
      {"measurement": "Effect on CFA-induced thermal hyperalgesia", "setting": "[5]; 100 mg/kg i.p.", "result": "significantly reduced CFA-induced thermal hyperalgesia"},
      {"measurement": "Circulating half-life", "setting": "[6]", "result": "about 2 h"},
      {"measurement": "Time of final elimination from the blood flow", "setting": "[6]", "result": 10, "unit": "h"}
    ]},
    {"smiles": "O=C(O)C[C@H](C(=O)O)[C@@H](OC(=O)C1=Cc2cc(O)c(O)cc2[C@@H](c2ccc(O)c(O)c2)[C@@H]1C(=O)O[C@@H](C(=O)O)[C@H](CC(=O)O)C(=O)O)C(=O)O", "note": "[sevanol]", "values": [
      {"measurement": "Inhibition of ASIC1a", "setting": "[7]", "result": "able to inhibit ASIC1a"},
      {"measurement": "Reduction of inflammation (paw oedema)", "setting": "[2]; 2.5 mg/kg intramuscular", "result": 22, "unit": "%"},
      {"measurement": "Anti-inflammatory effect within 4 h", "setting": "[2]", "result": "did not produce significant anti-inflammatory effects within 4 h"},
      {"measurement": "Travelled distance, time spent freezing, distance in the central area versus control", "setting": "[3]", "result": "each of these differences was nonsignificant"},
      {"measurement": "Analgesic and anti-inflammatory effect", "setting": "[4]; mice, 1–10 mg/kg", "result": "pronounced analgesic and anti-inflammatory activity"}
    ]}
  ]
}
